Results on two molecules are retold here after PMC5983823, “Screening of Natural Product Derivatives Identifies Two Structurally Related Flavonoids as Potent Quorum Sensing Inhibitors against Gram-Negative Bacteria” (International Journal of Molecular Sciences, 2018).

In experiment [1] the test system is P. aeruginosa (ATCC 9027, ATCC 15422 and PA01). Nature of the experiment: Viable plate counts (bacterial growth). The note with it: 100 and 400 µM, 24 h. Type of experiment: cell-based, Pseudomonas aeruginosa. As for the experimental part:
Effects of the leads on bacterial growth were assessed by performing viable plate counts. Compounds at final concentrations of 100 and 400 µM and cultures of P. aeruginosa (ATCC 9027, ATCC 15422 and PA01) and E. coli K-12 (10^6 CFU/mL) were simultaneously added to the 96-microtiter well plates (200 µL per well). Untreated bacteria were included in control wells. The plates were incubated at 37 °C, without shaking for 24 h. At the end of this period, bacterial suspensions were transferred from the wells to Eppendorf tubes, and the tubes were sonicated for 10 min (25 °C, 35 kHz, Sonorex Digitec water bath (Bandelin, Zurich, Switzerland)). Each suspension was serially diluted in LB and plated on LB agar. The number of viable bacteria in each test concentration was counted after overnight incubation at 37 °C. Results were expressed as CFU/mL.

In experiment [2] the test system is RhlI/RhlR controlled rhamnolipid biosynthesis in P. aeruginosa. More on the design: method as in ref 73 = [73]; 73. Manner S. Fallarero A. Abo Akademi University and University of Helsinki, Finland Evaluation of the Effects of the Leads in Rhamnolipid Biosynthesis Personal communication 2017. The note with it: personal communication ref 73; cited from earlier work.

The next experiment deals with P. aeruginosa PAO1. Kind of experiment: Crystal violet staining assay, transition from microcolonies to fully formed biofilms. In kind it is cell-based. The note with it: Pseudomonas aeruginosa, P. aeruginosa PAO1, mean ± SD, read-out: Inhibitory activity on the transition from microcolonies to fully formed biofilms. The procedure: (§1) Crystal violet-based biomass staining assay was performed to assess the effects of the compounds on the transition from microcolonies to fully formed as recently described in [26] with minor modifications. Briefly, diluted cultures of exponentially grown P. aeruginosa ATCC 9027, ATCC 15442 and PA01, and E. coli K-12 (10^6 CFU/mL) were added to the 96-microtiter well plates (200 µL per well) to form microcolonies for two hours (37 °C). At the end of this period, bacterial suspensions were removed, compounds at a final concentration of 400 µM and fresh LB media were added, and plates were incubated at 37 °C, with shaking (200 rpm) for additional 22 h. After the incubation period, media was discarded and the biofilms were washed once with sterile Milli-Q (MQ)-water. Biomass was fixed with methanol for 15 min followed by staining with 0.23% (v/v) crystal violet (Sigma-Aldrich, Munich, Germany) solution prepared in MQ-water (200 µL per well) for 5 min. Thereafter, wells were washed twice with MQ-water and 200 µL of 96% ethanol was added to the wells. Absorbance was measured at 595 nm using Varioskan Flash after 1 h.

A further experiment has as its system E. coli K-12. Described as above. In kind it is cell-based. The note with it: Escherichia coli, K12, E. coli K-12, mean ± SD, read-out: Inhibitory activity on the transition from microcolonies to fully formed biofilms. The procedure:
as §1

The next experiment has as its system P. aeruginosa ATCC 15422. Described as above. Type of experiment: cell-based. The note with it: Pseudomonas aeruginosa, ATCC15422, read-out: Inhibitory activity on the transition from microcolonies to fully formed biofilms. The procedure: as §1
The next experiment deals with P. aeruginosa ATCC 9027. The description is as above. The note with it: Pseudomonas aeruginosa, ATCC9027, P. aeruginosa ATCC 9027, mean ± SD, read-out: Inhibitory activity on the transition from microcolonies to fully formed biofilms. In kind it is cell-based. As for the experimental part:
as §1

The test system of experiment [3] is Staphylococcus aureus biofilms. More on the design: method as in PMID 24071942. The note with it: cited from earlier work.
The subject of the next experiment is C. violaceum CV026. Nature of the experiment: Violacein extraction assay (QS-mediated violacein production), mutant strain with exogenous autoinducer. In kind it is cell-based, Chromobacterium violaceum. The note with it: Chromobacterium violaceum, CV026, 24 h, read-out: Inhibition-% of violacein production. As for the experimental part: The initial screening of compound library was conducted using two strains of C. violaceum as model bacterium, and two assays (violacein extraction and resazurin staining) in parallel as recently optimized in [26]. For the screening assays, overnight cultures of C. violaceum were diluted in LB broth supplemented with yeast extract (LBY) (0.1% w/v, Sigma Aldrich, St. Louis, MO, USA). Culture of C. violaceum CV026 was further supplemented with 0.5 µM N-(β-ketocaproyl)-L-Homoserine lactone (3-O-C6-(L)-HSL, Cayman chemicals, Ann Arbor, MI, USA) to induce the violacein production. Bacteria (10^6 CFU/mL) was exposed to compounds (400 µM) in a total volume of 200 µL in 96-microtiter well plates (Nunc, Roskilde, Denmark), and incubated at 27 °C, with shaking at 200 rpm for 24 h. DMSO was added in untreated control wells and bacteria-free wells with only LBY were included controls. Additionally, autoinducer-free wells containing only bacteria were included in C. violaceum CV026 plates. Plates were prepared in duplicates. Quercetin dihydrate (Carl Roth GmbH, Karlsruhe, Germany) at 400 µM was used as positive control in violacein extraction assay, and azithromycin (Cayman chemicals, Ann Arbor, MI, USA) at 10 µM in viability assay. Both control compounds were prepared in DMSO. DMSO concentration was 2.5% throughout the experiments.
After incubation period of 24 h, plates were centrifuged (Allegra™ X-12R Benchtop centrifuge, Beckman Coulter Inc., Fullerton, CA, USA) at 3000 rpm for 10 min to precipitate the violacein. Supernatants were discarded from the wells by pipetting, and pellets were re-suspended in 200 μL of 96% ethanol by scraping and mixing followed by centrifugation (3000 rpm, 10 min). Thereafter, 100 μL of supernatants were transferred to sterile 96-microtiter well plates, and violacein was quantified by reading the optical density at 595 nm using Varioskan Flash. Inhibition of violacein production was expressed as inhibition percentages of the untreated biofilms (Equation (1)):Inhibition-% = [(untreated control OD595 − sample OD595)/(untreated control OD595 − media control OD595)] × 100%(1) in which untreated control = C. violaceum + DMSO, media control = LBY, and sample = C. violaceum treated with a compound. Later on, violacein extraction assay was also utilized for the determination of half inhibitory concentrations of the compounds.

Each structure is given as a SMILES string.

Take `CCCCCCCCCC(=O)Oc1c(-c2ccc(OC)cc2)oc2ccccc2c1=O` [Compound 2896, 2-(4-methoxyphenyl)-4-oxochromen-3-yl decanoate]: the “Bactericidal activity by viable plate counts” value in experiment [1] is given as “Neither of the leads displayed any bactericidal activity”. Further, in experiment [2], the “Effect on rhamnolipid biosynthesis” value is on record as “did not affect”. Further, the inhibition at 400 µM was 11.6 ± 11.1% with P. aeruginosa PAO1; 14.3 ± 10.1% in the experiment on E. coli K-12; 28.1 ± 15.1% in the experiment on P. aeruginosa ATCC 15422; 22.5 ± 3.2% in the experiment with P. aeruginosa ATCC 9027; 91.2% in the experiment with C. violaceum CV026. The “Anti-biofilm activity against S. aureus” value in experiment [3] is “inactives”.
On to `CCC(=O)Oc1c(-c2ccccc2Cl)oc2ccccc2c1=O` [Compound 2117, 2-(2-chlorophenyl)-4-oxochromen-3-yl propanoate], for which, in experiment [1], the “Bactericidal activity by viable plate counts” value is reported as “Neither of the leads displayed any bactericidal activity”. The “Effect on rhamnolipid biosynthesis” value in experiment [2] is given as “did not affect”. Moreover, the inhibition at 400 µM with P. aeruginosa PAO1 was determined as 42.3 ± 12.4%; in the experiment on E. coli K-12 it was 51.3 ± 6.9%; in the experiment with P. aeruginosa ATCC 15422 it was 11.2 ± 1.8%; with P. aeruginosa ATCC 9027 it was 27.2 ± 6%; in the experiment with C. violaceum CV026, 102%. Moreover, the “Anti-biofilm activity against S. aureus” value in experiment [3] is “inactives”.
